# Source: patent US20230295115A1, “SUBSTITUTED ISOQUINOLINYLMETHYL AMIDES, ANALOGUES THEREOF, AND METHODS USING SAME” (priority 2020, published 2023)
# System: HBV rcDNA
# Test: HepDE19 assay with bDNA quantitation of HBV rcDNA
# Format: cell-based, hepatitis B virus (HBV)
# Conditions: HepDE19 cells, 7 day incubation, rcDNA measured by Quantigene 2.0 bDNA assay, top concentration 25 μM; read-out: DE-19bDNA EC50
# Outline: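 HepDE19 cells were switched to tetracycline-free medium and exposed to compound (0.5% DMSO final) for 7 days at 37° C. rcDNA was then quantified by bDNA with an HBV-specific probe set. In parallel, viability was read as ATP content (CellTiter-Glo) after 4 days on replicate plates.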
row,Structure (SMILES),EC50 [µM]
1,"CC(c1c[nH]c(=O)c2cc(F)c(F)cc12)N(C)C(=O)c1c[nH]c2ccccc12 (single isomer, unassigned) [Compound 54, N-(1-(6,7-Difluoro-1-oxo-1,2-dihydroisoquinolin-4-yl)ethyl)-N-methyl-1H-indole-3-carboxamide]",5.1
2,"CC(c1c[nH]c(=O)c2cc(F)c(F)cc12)N(C)C(=O)C1Cc2cc(F)ccc2N1 (stereo not shown) [Compound 64, N-(1-(6,7-Difluoro-1-oxo-1,2-dihydroisoquinolin-4-yl)ethyl)-5-fluoro-N-methylindoline-2-carboxamide]",0.02
3,"CC(c1c[nH]c(=O)c2cc(F)c(F)cc12)N(C)C(=O)[C@H]1Cc2ccccc2CN1 (single isomer, unassigned) [Compound 32]",≥ 25
4,"CC(c1c[nH]c(=O)c2c(F)c(F)ccc12)N(C)C(=O)C1Cc2c(F)cc(F)cc2N1 (stereo not shown) [Compound 68, N-(1-(7,8-Difluoro-1-oxo-1,2-dihydroisoquinolin-4-yl)ethyl)-4,6-difluoro-N-methylindoline-2-carboxamide]",0.2
5,"CC(c1c[nH]c(=O)c2cc(F)c(F)cc12)N(C)C(=O)c1ccc(C(F)(F)F)cc1 (single isomer, unassigned) [Compound 129, N-(1-(6,7-Difluoro-1-oxo-1,2-dihydroisoquinolin-4-yl)ethyl)-N-methyl-4-(trifluoromethyl) benzamide]",6.46
6,"CC(c1c[nH]c(=O)c2c(F)c(F)ccc12)N(C)C(=O)C1Cc2cc(F)ccc2N1 (stereo not shown) [Compound 73, N-(1-(7,8-Difluoro-1-oxo-1,2-dihydroisoquinolin-4-yl)ethyl)-5-fluoro-N-methylindoline-2-carboxamide]",10
7,"CC(c1c[nH]c(=O)c2cc(F)c(F)cc12)N(C)C(=O)c1ccc(F)c(F)c1 (single isomer, unassigned) [Compound 137, N-(1-(6,7-Difluoro-1-oxo-1,2-dihydroisoquinolin-4-yl)ethyl)-3,4-difluoro-N-methylbenzamide]",22.4
8,"CC(c1c[nH]c(=O)c2cc(F)c(F)cc12)N(C)C(=O)[C@@H]1Cc2ccccc2N1 (single isomer, unassigned) [Compound 30]",0.02
9,"CC(c1cn(C)c(=O)c2cc(F)c(F)cc12)N(C)C(=O)c1cc2cc(F)c(F)cc2[nH]1 (single isomer, unassigned) [Compound 173, N-(1-(6,7-difluoro-2-methyl-1-oxo-1,2-dihydroisoquinolin-4-yl)ethyl)-5,6-difluoro-N-methyl-1H-indole-2-carboxamide]",2.12
10,"CC(c1c[nH]c(=O)c2cc(F)c(F)cc12)N(C)C(=O)c1cc2cccc(F)c2[nH]1 (single isomer, unassigned) [Compound 14, N-(1-(6,7-Difluoro-1-oxo-1,2-dihydroisoquinolin-4-yl)ethyl)-7-fluoro-N-methyl-1H-indole-2-carboxamide]",0.02
11,"CC(c1c[nH]c(=O)c2cc(F)c(F)cc12)N(C)C(=O)c1cc2ccc(F)cc2[nH]1 (single isomer, unassigned) [Compound 12, N-(1-(6,7-Difluoro-1-oxo-1,2-dihydroisoquinolin-4-yl)ethyl)-6-fluoro-N-methyl-1H-indole-2-carboxamide]",0.02
12,"CC(c1c[nH]c(=O)c2cc(F)c(F)cc12)N(C)C(=O)c1cc2ccccc2[nH]1 (single isomer, unassigned) [Compound 2, N-(1-(6,7-Difluoro-1-oxo-1,2-dihydroisoquinolin-4-yl)ethyl)-N-methyl-1H-indole-2-carboxamide]",0.02
13,"CC(c1cn(C)c(=O)c2cc(F)c(F)cc12)N(C)C(=O)c1ccc(Br)cc1 (single isomer, unassigned) [Compound 167, 4-bromo-N-(1-(6,7-difluoro-2-methyl-1-oxo-1,2-dihydroisoquinolin-4-yl)ethyl)-N-methylbenzamide]",2.32
14,"CC(c1c[nH]c(=O)c2c(F)c(F)ccc12)N(C)C(=O)c1cc2c([nH]1)CCC2 (single isomer, unassigned) [Compound 57, N-(1-(7,8-Difluoro-1-oxo-1,2-dihydroisoquinolin-4-yl)ethyl)-N-methyl-1,4,5,6-tetrahydrocyclopenta[b]pyrrole-2-carboxamide]",12
15,"CC(c1c[nH]c(=O)c2cc(F)c(F)cc12)N(C)C(=O)c1cc2c(F)cc(F)cc2[nH]1 (single isomer, unassigned) [Compound 17, N-(1-(6,7-Difluoro-1-oxo-1,2-dihydroisoquinolin-4-yl)ethyl)-4,6-difluoro-N-methyl-1H-indole-2-carboxamide]",2.5
16,"CC(c1c[nH]c(=O)c2c(F)c(F)ccc12)N(C)C(=O)C1Cc2c(F)cc(F)cc2N1 (stereo not shown) [Compound 67, N-(1-(7,8-Difluoro-1-oxo-1,2-dihydroisoquinolin-4-yl)ethyl)-4,6-difluoro-N-methylindoline-2-carboxamide]",3.1
17,"CC(c1c[nH]c(=O)c2cc(F)c(F)cc12)N(C)C(=O)c1cccc(C(F)F)c1 (single isomer, unassigned) [Compound 126, N-(1-(6,7-Difluoro-1-oxo-1,2-dihydroisoquinolin-4-yl)ethyl)-3-(difluoromethyl)-N-methylbenzamide]",0.1
18,"CC(c1c[nH]c(=O)c2cc(F)c(F)cc12)N(C)C(=O)c1ccc2ccn(C)c2c1 (single isomer, unassigned) [Compound 142, N-(1-(6,7-Difluoro-1-oxo-1,2-dihydroisoquinolin-4-yl)ethyl)-N,1-dimethyl-1H-indole-6-carboxamide]",0.39
19,"CC(c1cn(C)c(=O)c2cc(F)c(F)cc12)N(C)C(=O)c1cc2c(F)cccn2c1 (single isomer, unassigned) [Compound 171, N-(1-(6,7-difluoro-2-methyl-1-oxo-1,2-dihydroisoquinolin-4-yl)ethyl)-8-fluoro-N-methylindolizine-2-carboxamide]",16.4
20,"CC(c1c[nH]c(=O)c2cc(F)c(F)cc12)N(C)C(=O)c1cn2ccccc2n1 (single isomer, unassigned) [Compound 46, N-(1-(6,7-Difluoro-1-oxo-1,2-dihydroisoquinolin-4-yl)ethyl)-N-methylimidazo[1,2-a]pyridine-2-carboxamide]",21
21,"CC(c1c[nH]c(=O)c2cc(F)c(F)cc12)N(C)C(=O)c1cc2ccc(F)cn2c1 (single isomer, unassigned) [Compound 102, N-(1-(6,7-Difluoro-1-oxo-1,2-dihydroisoquinolin-4-yl)ethyl)-6-fluoro-N-methylindolizine-2-carboxamide]",12
22,"CC(c1c[nH]c(=O)c2cc(F)c(F)cc12)N(C)C(=O)C1Cc2c(F)cc(F)cc2N1 (stereo not shown) [Compound 98, N-(1-(6,7-Difluoro-1-oxo-1,2-dihydroisoquinolin-4-yl)ethyl)-4,6-difluoro-N-methylindoline-2-carboxamide]",5.9
23,"CC(c1c[nH]c(=O)c2cc(F)c(F)cc12)N(C)C(=O)c1cc2cc(F)c(F)cc2[nH]1 (single isomer, unassigned) [Compound 16, N-(1-(6,7-Difluoro-1-oxo-1,2-dihydroisoquinolin-4-yl)ethyl)-5,6-difluoro-N-methyl-1H-indole-2-carboxamide]",0.01
24,"CC(c1c[nH]c(=O)c2cc(F)c(F)cc12)N(C)C(=O)c1cc2cccc(F)c2[nH]1 (single isomer, unassigned) [Compound 13, N-(1-(6,7-Difluoro-1-oxo-1,2-dihydroisoquinolin-4-yl)ethyl)-7-fluoro-N-methyl-1H-indole-2-carboxamide]",3.4

# Same assay, conditions: Hepatitis B virus, HepDE19, 168 h, HepDE19 cells, 7 day incubation, rcDNA measured by Quantigene 2.0 bDNA assay, top concentration 25 μM; read-out: DE-19bDNA EC50
row,Structure (SMILES),EC50 [µM]
1,"C[C@H](c1c[nH]c(=O)c2ccccc12)N(C)C(=O)c1ccc(Br)c(F)c1 [Compound 150, (R)-4-Bromo-3-fluoro-N-methyl-N-(1-(1-oxo-1,2-dihydroisoquinolin-4-yl)ethyl)benzamide]",0.51

# Same assay, conditions: Hepatitis B virus, HepDE19, 168 h, read-out: DE-19bDNA EC50 (μM), HepDE19 cells, 7 day incubation, rcDNA measured by Quantigene 2.0 bDNA assay, top concentration 25 μM
row,Structure (SMILES),EC50 [µM]
1,"CC(c1c[nH]c(=O)c2cc(F)c(F)cc12)N(C)C(=O)Cc1cc2ccccc2[nH]1 (racemic) [Compound 59, N-(1-(6,7-Difluoro-1-oxo-1,2-dihydroisoquinolin-4-yl)ethyl)-2-(1H-indol-2-yl)-N-methylacetamide]",0.91
2,"C[C@H](c1c[nH]c(=O)c2ccccc12)N(C)C(=O)c1cc2cc(F)ccc2[nH]1 [Compound 157, (R)-5-Fluoro-N-methyl-N-(1-(1-oxo-1,2-dihydroisoquinolin-4-yl)ethyl)-1H-indole-2-carboxamide]",0.15
3,"C[C@H](c1c[nH]c(=O)c2cc(F)c(F)cc12)N(C)C(=O)c1cc2c([nH]1)CCCC2 [Compound 34, (R)-N-(1-(6,7-Difluoro-1-oxo-1,2-dihydroisoquinolin-4-yl)ethyl)-N-methyl-4,5,6,7-tetrahydro-1H-indole-2-carboxamide]",0.05
4,"C[C@H](c1c[nH]c(=O)c2cc(F)c(F)cc12)N(C)C(=O)c1ccc2cccn2c1 [Compound 185, (R)-N-(1-(6,7-Difluoro-1-oxo-1,2-dihydroisoquinolin-4-yl)ethyl)-N-methylindolizine-6-carboxamide]",0.04

# Same assay, conditions: read-out: DE-19bDNA EC50; HepDE19 cells, 7 day incubation, rcDNA measured by Quantigene 2.0 bDNA assay, top concentration 25 μM
row,Structure (SMILES),EC50 [µM]
1,"CC(c1c[nH]c(=O)c2c(F)c(F)ccc12)N(C)C(=O)c1cc2ccccn2c1 (single isomer, unassigned) [Compound 72, N-(1-(7,8-Difluoro-1-oxo-1,2-dihydroisoquinolin-4-yl)ethyl)-N-methylindolizine-2-carboxamide]",0.14
2,"CC(c1c[nH]c(=O)c2cc(F)c(F)cc12)N(C)C(=O)c1cc2ccccn2c1 (single isomer, unassigned) [Compound 69, N-(1-(6,7-Difluoro-1-oxo-1,2-dihydroisoquinolin-4-yl)ethyl)-N-methylindolizine-2-carboxamide]",5.7
